Results as given in PubChem BioAssay (NCI).
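A five-concentration, 48-hour dose response in 96-well plates underlies each endpoint, interpolated linearly between surrounding concentrations. At the GI50, growth is halved. Definition used: TGI = concentration required for complete inhibition of growth.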

Experiments:
Assay in all cases: NCI anticancer screen, dose series, 48 h
[1] = system: NCI-H460 lung
[2] = system: SNB-19 CNS
[3] = system: OVCAR-4 ovarian
[4] = system: CAKI-1 renal
[5] = system: HCT-15 colon
[6] = system: SF-268 CNS
[7] = system: A498 renal
[8] = system: PC-3 prostate
[9] = system: A549 NSCLC
[10] = system: MDA-MB-231 breast
[11] = system: HS 578T breast
[12] = system: SF-539 CNS
[13] = system: COLO 205 colon
[14] = system: UACC-62 melanoma
[15] = system: MALME-3M melanoma
[16] = system: K-562 leukemia
[17] = system: HCC-2998 colon
[18] = system: NCI-H522 lung
[19] = system: CCRF-CEM leukemia
[20] = system: NCI-H23 lung
[21] = system: ACHN renal
[22] = system: NCI-H226 lung
[23] = system: MCF7 breast
[24] = system: 786-0 renal
[25] = system: SNB-75 CNS
[26] = system: MDA-MB-435
[27] = system: HCT-116 colon
[28] = system: MOLT-4 leukemia
[29] = system: LOX IMVI melanoma
[30] = system: OVCAR-8 ovarian
[31] = system: U251 CNS
[32] = system: HOP-62 NSCLC
[33] = system: SN12C renal
[34] = system: NCI/ADR-RES ovarian
[35] = system: HOP-92 NSCLC
[36] = system: TK-10 renal
[37] = system: SF-295 CNS
[38] = system: OVCAR-5 ovarian
[39] = system: RXF 393 renal
[40] = system: IGROV1 ovarian
[41] = system: SR leukemia
[42] = system: SK-MEL-28 melanoma
[43] = system: SK-MEL-5 melanoma
[44] = system: SK-MEL-2 melanoma
[45] = system: M14 melanoma
[46] = system: EKVX NSCLC
[47] = system: DU-145 prostate
[48] = system: UO-31 renal
[49] = system: SW-620 colon
[50] = system: UACC-257 melanoma
[51] = system: HT29 colon
[52] = system: KM12 colon
[53] = system: SK-OV-3 ovarian
[54] = system: RPMI-8226 leukemia

NC(N)=Nc1ccc(Oc2cccc(NC(N)=Nc3ccc(Cl)c(C(F)(F)F)c3)c2)cn1
GI50 [1]: 1.48 µM
TGI [1]: 3.6 µM
GI50 [2]: 1.28 µM
TGI [2]: 2.68 µM
GI50 [3]: 2.53 µM
TGI [3]: 9.36 µM
GI50 [4]: 3.29 µM
TGI [4]: 17.4 µM
GI50 [5]: 19.6 µM
TGI [5]: 67.6 µM
GI50 [6]: 1.09 µM
TGI [6]: 2.54 µM
GI50 [7]: 1.69 µM
TGI [7]: 6.24 µM
GI50 [8]: 1.07 µM
TGI [8]: 2.62 µM
GI50 [9]: 1.91 µM
TGI [9]: 17.4 µM
GI50 [10]: 1.99 µM
TGI [10]: 5.23 µM
GI50 [11]: 1.78 µM
TGI [11]: 4.63 µM
GI50 [12]: 1.54 µM
TGI [12]: 3.01 µM
GI50 [13]: 1.43 µM
TGI [13]: 3.08 µM
GI50 [14]: 2.38 µM
TGI [14]: 12.7 µM
GI50 [15]: 2.3 µM
TGI [15]: 7.91 µM
GI50 [16]: 1.51 µM
TGI [16]: 10.6 µM
GI50 [17]: 1.67 µM
TGI [17]: 3.37 µM
GI50 [18]: 2.19 µM
TGI [18]: 5.81 µM
GI50 [19]: 2.27 µM
TGI [19]: 10.3 µM
GI50 [20]: 1.73 µM
TGI [20]: 4.15 µM
GI50 [21]: 13.3 µM
TGI [21]: 29.4 µM
GI50 [22]: 2.18 µM
TGI [22]: 6.25 µM
GI50 [23]: 1.24 µM
TGI [23]: 3.01 µM
GI50 [24]: 4.83 µM
TGI [24]: 24.8 µM
GI50 [25]: 0.515 µM
TGI [25]: 2.92 µM
GI50 [26]: 1.66 µM
TGI [26]: 3.66 µM
GI50 [27]: 1.73 µM
TGI [27]: 4.86 µM
GI50 [28]: 2.16 µM
TGI [28]: 8.08 µM
GI50 [29]: 1.4 µM
TGI [29]: 2.74 µM
GI50 [30]: 3.3 µM
TGI [30]: 18.7 µM
GI50 [31]: 1.26 µM
TGI [31]: 2.83 µM
GI50 [32]: 2.05 µM
TGI [32]: 5.76 µM
GI50 [33]: 2.2 µM
TGI [33]: 8.97 µM
GI50 [34]: 40.5 µM
TGI [34]: > 100 µM
GI50 [35]: 1.16 µM
TGI [35]: 3.43 µM
GI50 [36]: 4.35 µM
TGI [36]: 21.7 µM
GI50 [37]: 2.08 µM
TGI [37]: 7.97 µM
GI50 [38]: 1.89 µM
TGI [38]: 5.73 µM
GI50 [39]: 1.83 µM
TGI [39]: 4.78 µM
GI50 [40]: 1.07 µM
TGI [40]: 2.51 µM
GI50 [41]: 1.42 µM
TGI [41]: 3.76 µM
GI50 [42]: 2.04 µM
TGI [42]: 5.92 µM
GI50 [43]: 2.53 µM
TGI [43]: 6.94 µM
GI50 [44]: 1.78 µM
TGI [44]: 3.37 µM
GI50 [45]: 3.22 µM
TGI [45]: 19.3 µM
GI50 [46]: 2.77 µM
TGI [46]: 13.5 µM
GI50 [47]: 2.22 µM
TGI [47]: 5.27 µM
GI50 [48]: 12.9 µM
TGI [48]: 29.6 µM
GI50 [49]: 1.94 µM
TGI [49]: 4.83 µM
GI50 [50]: 2.87 µM
TGI [50]: 12.8 µM
GI50 [51]: 1.91 µM
TGI [51]: 5.64 µM
GI50 [52]: 1.47 µM
TGI [52]: 2.9 µM
GI50 [53]: 2.7 µM
TGI [53]: 10.4 µM
GI50 [54]: 1.56 µM
TGI [54]: 4 µM
